According to patent publication US4497806A, “Triorganotin compounds, antifungal and antibacterial compositions containing same, and method of using same” (priority 1983, dated 1985):

What was measured:
[1] = system: Escherichia coli; experiment: Antibacterial activity, agar growth inhibition; type: cell-based; settings: for growth inhibition: Gram-negative, 24 hours at 37° C.
Protocol: (§1) The agar was also needed with a 1:100 dilution of an 18-hour old culture of the desired bacterial species in sterile distilled water. The plates were incubated for 24 hours at 37° C. with each bacterial strain. Observations of bacterial growth inhibition were made following the appropriate incubation period.
(§2) A solvent control was included in all evaluations, as were growth controls for all bacteria species.
(§3) These compounds were tested for antibacterial activity in the same manner as the triorganotin 5-nitro-2-furoates of the present invention.
(§4) All of the bacteria tested were obtained from the culture collection of the Department of Biological Sciences, St. John's University.

[2] = system: Fusarium moniliforme (ATCC 10052); experiment: Antifungal activity, agar plate growth inhibition; type: cell-based; settings: 14 days
Protocol: (§5) Dilutions of the sterile solutions were prepared and added to liquified potato dextrose agar (Difco) to yield final concentrations of 100, 10 and 1 μg/ml. The agar, containing the appropriate organotin compound, was poured into sterile petri dishes and allowed to solidify over night. The agar surface was inoculated centrally with a 2 mm^2 portion of the growth from a ten-day-old culture of each fungus of the group consisting of Aspergillus niger, Chaetomium globosum, Cladosporium carpophilum, Fusarium moniliforme, Myrotheium verrucaria, Penicillium notatum, Rhizopus stolonifer, Trichoderma viride and Trichophyton mentagrophytes, or from a two-day-old culture of Saccharomyces cerevisiae. Inoculated plates were incubated for 14 days and observations of growth inhibition were made by measuring the diameters of the colonies present on the agar surface.
(§6) A solvent was included in all evaluations, as were growth controls for all fungal species.
(§7) The following compounds were tested for comparative purposes: [drawing 6] These compounds were tested for antifungal activity in the same manner as the triorganotin 5-nitro-2-furoates of the present invention.

[3] = system: Trichoderma viride (ATCC 8678); experiment: Antifungal activity, agar plate growth inhibition; type: cell-based; settings: 14 days
Protocol: as §5, §6, §7

[4] = system: Saccharomyces cerevisiae (ATCC 9896); experiment: Antifungal activity, agar plate growth inhibition; type: cell-based; settings: 14 days
Protocol: as §5, §6, §7

[5] = system: Penicillium notatum (ATCC 9179); experiment: Antifungal activity, agar plate growth inhibition; type: cell-based; settings: 14 days
Protocol: as §5, §6, §7

[6] = system: Chaetomium globosum (ATCC 6205); experiment: Antifungal activity, agar plate growth inhibition; type: cell-based; settings: 14 days
Protocol: as §5, §6, §7

[7] = system: Rhizopus stolonifer (ATCC 10404); experiment: Antifungal activity, agar plate growth inhibition; type: cell-based; settings: 14 days
Protocol: as §5, §6, §7

[8] = system: Myrothecium verrucaria (ATCC 9095); experiment: Antifungal activity, agar plate growth inhibition; type: cell-based; settings: 14 days
Protocol: as §5, §6, §7

[9] = system: Trichophyton mentagrophytes (ATCC 9129); experiment: Antifungal activity, agar plate growth inhibition; type: cell-based; settings: 14 days
Protocol: as §5, §6, §7

[10] = system: Aspergillus niger (ATCC 12845); experiment: Antifungal activity, agar plate growth inhibition; type: cell-based; settings: 14 days
Protocol: as §5, §6, §7

[11] = system: Cladosporium carpophilium (ATCC 12117); experiment: Antifungal activity, agar plate growth inhibition; type: cell-based, Cladosporium carpophilum; settings: 14 days
Protocol: as §5, §6, §7

[12] = system: Bacillus subtilis; experiment: Antibacterial activity, agar growth inhibition; type: cell-based; design: key: -: no inhibition of growth; +: partial inhibition; 2+: complete inhibition; settings: Gram-positive; 1 μg/ml; 24 hours at 37° C.
Protocol: as §1, with “The antibacterial activity of Compounds A-E was investigated by means of incorporating the compounds into sterile tryptic soy agar (Difco) at levels of 100, 10, and 1 μg/ml. The agar” for “The agar”
as §2
(§8) Comparative compounds 1-5 above were employed for comparison purposes. These compounds were tested for antibacterial activity in the same manner as the triorganotin 5-nitro-2-furoates of the present invention.
as §4
(§9) The ability of Compound B to inhibit the growth of other Gram-positive bacteria, using the same test procedures as described for the antibacterial activity determined in Table III above, is illustrated in Table IV below.

[13] = system: test fungi; experiment: Antifungal activity, summary over the 10 test fungi; type: cell-based
Protocol: as §5, §6, §7

[14] = system: Pseudomonas aeruginosa; experiment: Antibacterial activity, agar growth inhibition; type: cell-based; settings: Gram-negative, 24 hours at 37° C.
Protocol: as §1, §2, §3, §4

[15] = system: Bacillus megaterium; experiment: Antibacterial activity, agar growth inhibition; type: cell-based; settings: Gram-positive
Protocol: as §1, §2, §3, §4

[16] = system: Staphylococcus aureus; experiment: Antibacterial activity, agar growth inhibition; type: cell-based
Protocol: as §1, with “The antibacterial activity of Compounds A-E was investigated by means of incorporating the compounds into sterile tryptic soy agar (Difco) at levels of 100, 10, and 1 μg/ml. The agar” for “The agar”
as §2, §8, §4, §9

CCOC(=Nc1ccccc1)[S][Sn]([c]1ccccc1)([c]1ccccc1)[c]1ccccc1 [compound 4, Ethyl N--phenyl-S--(triphenylstannyl)iso-thiocarbamate, reference compound]
growth inhibition (in words) ([1]; 100 μg/ml): partially
growth inhibition ([1]; 1 μg/ml): -
growth inhibition ([1]; 10 μg/ml): -
growth inhibition ([2]; 1 μg/ml): +
growth inhibition ([2]; 10 μg/ml): +
growth inhibition ([2]; 100 μg/ml): +
growth inhibition ([3]; 1 μg/ml): -
growth inhibition ([3]; 10 μg/ml): +
growth inhibition ([3]; 100 μg/ml): +
growth inhibition ([4]; 1 μg/ml): -
growth inhibition ([4]; 10 μg/ml): +
growth inhibition ([4]; 100 μg/ml): +
growth inhibition ([5]; 1 μg/ml): +
growth inhibition ([5]; 10 μg/ml): +
growth inhibition ([5]; 100 μg/ml): +
growth inhibition ([6]; 1 μg/ml): +
growth inhibition ([6]; 10 μg/ml): +
growth inhibition ([6]; 100 μg/ml): 2+
growth inhibition ([7]; 1 μg/ml): +
growth inhibition ([7]; 10 μg/ml): +
growth inhibition ([7]; 100 μg/ml): +
growth inhibition ([8]; 1 μg/ml): +
growth inhibition ([8]; 10 μg/ml): +
growth inhibition ([8]; 100 μg/ml): +
growth inhibition ([9]; 1 μg/ml): +
growth inhibition ([9]; 10 μg/ml): 2+
growth inhibition ([9]; 100 μg/ml): 2+
growth inhibition ([10]; 1 μg/ml): +
growth inhibition ([10]; 10 μg/ml): +
growth inhibition ([10]; 100 μg/ml): +
growth inhibition ([11]; 1 μg/ml): +
growth inhibition ([11]; 10 μg/ml): +
growth inhibition ([11]; 100 μg/ml): 2+
growth inhibition [12]: -

Triphenyltin 5-nitro-2-furoate [Compound A]
partial growth inhibition of test fungi (in words) ([13]; 1 μg/ml): partially inhibiting the growth of all of the test fungi, except Saccharomyces cerevisiae
number of test fungi with growth completely inhibited ([13]; 10 μg/ml): 5 of the 10 test fungi
antifungal activity, rank among the triorganotin 5-nitro-2-furoates ([13]; among Compounds A-E): second best antifungal agent
growth inhibition ([14]; 1 μg/ml): -
growth inhibition ([14]; 10 μg/ml): -
growth inhibition ([14]; 100 μg/ml): -
growth inhibition ([1]; 1 μg/ml): -
growth inhibition ([1]; 10 μg/ml): -
growth inhibition ([1]; 100 μg/ml): -
minimum concentration for complete growth inhibition [15]: 1 µg/mL
growth inhibition ([2]; 1 μg/ml): +
growth inhibition ([2]; 10 μg/ml): +
growth inhibition ([2]; 100 μg/ml): +
growth inhibition ([3]; 1 μg/ml): +
growth inhibition ([3]; 10 μg/ml): +
growth inhibition ([3]; 100 μg/ml): +
growth inhibition ([4]; 1 μg/ml): -
growth inhibition ([4]; 10 μg/ml): +
growth inhibition ([4]; 100 μg/ml): +
growth inhibition ([5]; 1 μg/ml): +
growth inhibition ([5]; 10 μg/ml): 2+
growth inhibition ([5]; 100 μg/ml): 2+
growth inhibition ([6]; 1 μg/ml): +
growth inhibition ([6]; 10 μg/ml): +
growth inhibition ([6]; 100 μg/ml): +
growth inhibition ([7]; 1 μg/ml): +
growth inhibition ([7]; 10 μg/ml): +
growth inhibition ([7]; 100 μg/ml): +
growth inhibition ([8]; 1 μg/ml): +
growth inhibition ([8]; 10 μg/ml): 2+
growth inhibition ([8]; 100 μg/ml): 2+
growth inhibition ([9]; 1 μg/ml): +
growth inhibition ([9]; 10 μg/ml): 2+
growth inhibition ([9]; 100 μg/ml): 2+
growth inhibition ([10]; 1 μg/ml): +
growth inhibition ([10]; 10 μg/ml): 2+
growth inhibition ([10]; 100 μg/ml): 2+
growth inhibition ([11]; 1 μg/ml): 2+
growth inhibition ([11]; 10 μg/ml): 2+
growth inhibition ([11]; 100 μg/ml): 2+
minimum concentration for complete growth inhibition ([16]; Gram-positive): 1 µg/mL
activity relative to Comparative Compounds 2, 4 and 5 ([16]; towards Staphylococcus aureus): identical
